In the supplement of paper PMC4862054:

Assays:
Settings in all cases: incubation time: 72 h
BT-474 = test: drug sensitivity score (DSS), CellTiter-Glo (DSS (AUC-based score)); higher = stronger drug effect (viability inhibition or cytotoxicity); extreme values may be limits of the assay
Outline: (§1)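 Using 20 µl of cell suspension per well, breast cancer cell lines were seeded into 384-well plates pre-loaded with compound at 5 concentrations in 10-fold steps across a compound-specific 10,000-fold range. Incubation lasted 72 h, after which CellTox Green fluorescence at 485/520 nm and then CellTiter-Glo luminescence, following 10 min at room temperature, were recorded. Each plate was normalised to 0.1 % DMSO and a positive kill control before the drug sensitivity score was derived from the area under the fitted dose-response curve.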

BT-549 [1] = test: as above
Outline: as §1

CAL-120 = test: as above
Outline: as §1

CAL-148 = test: as above
Outline: as §1

CAL-51 = test: as above
Outline: as §1

CAL-85-1 [2] = test: as above
Outline: as §1

DU-4475 [3] = test: as above
Outline: as §1

HCC1143 [4] = test: as above
Outline: as §1

HCC1599 = test: as above
Outline: as §1

HCC1937 = test: as above
Outline: as §1

HDQ-P1 = test: as above
Outline: as §1

Hs578T = test: as above
Outline: as §1

MCF-10A = test: as above
Outline: as §1

MDA-MB-231 = test: as above
Outline: as §1

MDA-MB-436 = test: as above
Outline: as §1

MDA-MB-453 [5] = test: as above
Outline: as §1

MDA-MB-468 [6] = test: as above
Outline: as §1

MFM-223 [7] = test: as above
Outline: as §1

SK-BR-3 [8] = test: as above
Outline: as §1

BT-549 [9] = test: normalised response (% of control), CellTiter-Glo; higher = more viable cells (100 = DMSO, 0 = benzethonium chloride kill control)
Outline: (§2)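 Values are normalised signals, each belonging to one concentration of the series. Breast cancer cells (20 µl suspension) were seeded into 384-well plates with compound at 5 concentrations in 10-fold steps over a compound-specific 10,000-fold range and incubated 72 h. Readouts were CellTox Green fluorescence (485/520 nm), then CellTiter-Glo luminescence after 10 min at room temperature, with each plate set to 0.1 % DMSO as 100 and a positive kill control as 0.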

CAL-85-1 [10] = test: as above
Outline: as §2

DU-4475 [11] = test: as above
Outline: as §2

HCC1143 [12] = test: as above
Outline: as §2

MDA-MB-453 [13] = test: as above
Outline: as §2

MDA-MB-468 [14] = test: as above
Outline: as §2

MFM-223 [15] = test: as above
Outline: as §2

SK-BR-3 [16] = test: as above
Outline: as §2

Structure (SMILES)	drug sensitivity score (BT-474)	drug sensitivity score (BT-549 [1])	drug sensitivity score (CAL-120)	drug sensitivity score (CAL-148)	drug sensitivity score (CAL-51)	drug sensitivity score (CAL-85-1 [2])	drug sensitivity score (DU-4475 [3])	drug sensitivity score (HCC1143 [4])	drug sensitivity score (HCC1599)	drug sensitivity score (HCC1937)	drug sensitivity score (HDQ-P1)	drug sensitivity score (Hs578T)	drug sensitivity score (MCF-10A)	drug sensitivity score (MDA-MB-231)	drug sensitivity score (MDA-MB-436)	drug sensitivity score (MDA-MB-453 [5])	drug sensitivity score (MDA-MB-468 [6])	drug sensitivity score (MFM-223 [7])	drug sensitivity score (SK-BR-3 [8])	normalised response (BT-549 [9]) [%]	normalised response (CAL-85-1 [10]) [%]	normalised response (DU-4475 [11]) [%]	normalised response (HCC1143 [12]) [%]	normalised response (MDA-MB-453 [13]) [%]	normalised response (MDA-MB-468 [14]) [%]	normalised response (MFM-223 [15]) [%]	normalised response (SK-BR-3 [16]) [%]
Cn1cc(C2=Nc3cc(NC(=O)C(N)C4CCCCC4)cc4c3C2=CNNC4=O)cn1 (centres undefined)	6.46	14.6	6.28	0	5.76	13.3	2.68	7.81	20.3	4.78	3.25	12.1	2.96	7.52	9.88	14.3	14.4	12.2	19.1								
Cn1cc(C2=Nc3cc(NC(=O)C(N)C4CCCCC4)cc4c3C2=CNNC4=O)cn1 (centres undefined) (1000 nM)																				25.7	36.8	89	64.5	35.9	30.7	46.4	17.8
COc1cc2c(cc1O)CC[C@@H]1[C@@H]2CC[C@]2(C)[C@@H](O)CC[C@@H]12 [2-methoxyestradiol]	5.9	10.1	4.15	2.17	5.34	5.61	2.41	3.67	2.6	0	0.369	7.49	0	5.78	6.35	5.52	4.21	4.75	5.71								
COc1cc2c(cc1O)CC[C@@H]1[C@@H]2CC[C@]2(C)[C@@H](O)CC[C@@H]12 [2-methoxyestradiol] (1000 nM)																				49.5	77.6	98.5	82.5	72.7	95.1	75.3	83.2
Cc1sc2c(c1C)C(c1ccc(Cl)cc1)=N[C@@H](CC(=O)OC(C)(C)C)c1nnc(C)n1-2 [(+)JQ1]	7.3	13.3	4.19	6.21	1.66	12.7	9.61	5.11	0	3.6	6.56	12.8	9.62	3.61	2.63	10.7	9.62	8.38	5.66								
Cc1sc2c(c1C)C(c1ccc(Cl)cc1)=N[C@@H](CC(=O)OC(C)(C)C)c1nnc(C)n1-2 [(+)JQ1] (1000 nM)																				43.5	38.7	56.6	72.8	46.1	55.1	58.2	66.9
CC1(C)CCC(CN2CCN(c3ccc(C(=O)NS(=O)(=O)c4ccc(NCC5CCOCC5)c([N+](=O)[O-])c4)c(Oc4cnc5[nH]ccc5c4)c3)CC2)=C(c2ccc(Cl)cc2)C1 [ABT-199]	0	0	0	0	1.71	0	0	0	0	0	0	0	0	0	0	0	0.128	0	0								
Oc1ncnc2[nH]ncc12 [Allopurinol]	0	0	0	0	0	0	0	0	0	0	0	0	0	0	0	0	0	0	0								
Oc1ncnc2[nH]ncc12 [Allopurinol] (1000 nM)																				99.7	96.2	105	107	107	106	108	112
O=C1CN2Cc3c(ccc(Cl)c3Cl)N=C2N1 [Anagrelide]	0.269	0	0	0	0.565	0	0	0	0	0	0	1.32	0	0	0	0	0	0	0								
O=C1CN2Cc3c(ccc(Cl)c3Cl)N=C2N1 [Anagrelide] (1000 nM)																				95.1	101	98	97.9	101	102	102	98.2
Nc1ncn([C@@H]2O[C@H](CO)[C@@H](O)[C@H]2O)c(=O)n1 [Azacitidine]	1.74	5.75	0	0	0	0	0	0	1.27	0	2.36	0	0	0	4.78	0	12.1	0	0								
Nc1ncn([C@@H]2O[C@H](CO)[C@@H](O)[C@H]2O)c(=O)n1 [Azacitidine] (1000 nM)																				80.5	106	90.5	99.5	96.8	39	96.7	91.7
O=NN(CCCl)C(=O)NCCCl [Carmustine]	0	0	0	0	0	0	0	0	0	0	0	0	0	0	0	0	0	0	0								
O=NN(CCCl)C(=O)NCCCl [Carmustine] (1000 nM)																				101	97.5	98.9	100	102	96.8	97.6	96.2
CC1=C2C[C@H]3[C@@H](CC=C4C[C@@H](O)CC[C@@]43C)[C@@H]2CC[C@]12O[C@@H]1C[C@H](C)CN[C@H]1[C@H]2C [Cyclopamine] (1000 nM)																				92.4	106	99.5	105	108	105	110	111
CC(=O)O[C@@]12CO[C@@H]1C[C@H](O)[C@@]1(C)C(=O)[C@H](O)C3=C(C)[C@@H](OC(=O)[C@H](O)[C@@H](NC(=O)OC(C)(C)C)c4ccccc4)C[C@@](O)([C@@H](OC(=O)c4ccccc4)[C@H]21)C3(C)C [Docetaxel] (100 nM)																				16	28.1	34.7	31.5	45.3	36.6	40	10.1
CC1(C)CNc2cc(NC(=O)c3cccnc3NCc3ccncc3)ccc21 [Motesanib] (1000 nM)																				97.6	93.5	98.4	93.6	101	91.5	91	80.6
CC[C@@H]1C(=O)OC[C@@H]1Cc1cncn1C [Pilocarpine] (4000 nM)																				97.6	102	97	92.2	98.9	91.8	94.1	92.4
CC(C)(C)c1cnc(CSc2cnc(NC(=O)C3CCNCC3)s2)o1 [SNS-032] (1000 nM)																				8.17	6.5	6.57	12.1	25.5	5.83	18.9	3.47
Cn1cnc2c(F)c(Nc3ccc(Br)cc3Cl)c(C(=O)NOCCO)cc21 [Selumetinib] (1000 nM)																				96.5	107	4.56	85.1	106	87.8	92.2	86.8
Nc1nc2[nH]cnc2c(=S)[nH]1 [Thioguanine] (1000 nM)																				94.2	70.3	88.5	99.1	94.3	95.7	93.7	95.4
